Consider 23 compounds from patent publication US5250527A, “Pyridyl containing benzimidazoles, compositions and use” (SmithKline & French Laboratories Limited, priority 1988, dated 1993).

The IC50 is the concentration at which inhibition is half-maximal. Higher therefore signals a need for much substance. For orientation: ED50 means the midpoint of the dose-response relation. The % inhibition is the relative decrease from the control value, in per cent. Lower therefore signals a response near the control.

Test [1] has as its system rabbit intact gastric glands. Nature of the test: Aminopyrine (AP) accumulation in intact gastric glands. It is filed as cell-based, New Zealand white rabbits. The conditions noted are these: Oryctolagus cuniculus, 0.5 h, inhibition of aminopyrine accumulation, dibutyryl cAMP stimulated, pH 7.4, 30 min. The procedure: The effect of a single concentration (100 μm) of a compound of structure (I) on dibutyryl cAMP stimulated AP […] in rabbit intact gastric glands was determined. Preferred compounds of structure (I) were tested over a range of concentrations to determine the IC50 value.
Intact gastric glands were prepared from New Zealand white rabbits by the method of Berghindh et al. (Acta. Physio. Scand. 96, 150, 1976). Gastric mucosal scrapings were digested at 37° C. for 45-60 min. with Collagenase (100 U. Type 1. Sigma), and glands harvested by coarse filtration and sedimentation.
Test compound was incubated with glands and 300 μM dibutyryl CAMP for 30 minutes at […]. Incubating medium contained 132.5 mM NaCl, 5.4 Mm KCl, 1.0 mM NaH2 PO4. 5.0 mM Na2 HPO4, 1.2 mM MgSO4, 1.0 mM CaCl2, 11.1 mM glucose, 2.0 mg/ml rabbit albumin, 10 μg/ml phenol red, approximately 0.3 μM[^14 C] aminopyrine (110 mCi/mmole), pH 7.4.
After incubation, glands were centrifuged and the supernatant removed. The glands were dried, weighed and dissolved in NaOH. The distribution of radioactivity between the supernatant and glands is then used to calculate the AP ratio after the method of Berglindh et al. (Acta. Physiol. Scand. 97, 401, 1976).
The IC50 value is the amount of compound required to inhibit the […] accumulation of aminopyrine by 50%.

Another test concerns the target T1, H^+ -K^+ -ATPase (Sus scrofa, UniProt P19156).
T1 construct: alpha-beta complex
Nature of the test: K+ stimulated ATPase activity. The conditions noted are these: at pH 6.1 and 7.4; lyophilised gastric vesicles of pig fundic mucosa. Format: biochemical. On the procedure: The effects of a single high concentration (1 mM) of a compound of structure (I) on H^+ -K^+ ATPase were determined at pH 6.1 and pH 7.4.
Compounds of structure (I) were pre-incubated with H^+ -K^+ -ATPase preparation 30 μg protein/ml from (i) in 10 mM Pipes/Tris buffer pH 6.1 and pH 7.4.
After 30 min at 37° the preincubation was diluted 5-fold with assay buffer to start the ATPase reaction. The conditions in the assay are 100 mM Pipes/Tris, 2 mM MgCl2, 10 mM KCl, 5 μgml nigericin, 2 mM Na2 ATP, pH 7.0.
The effect of the same concentration of compound of structure (I) (preincubated with H^+ -K^+ -ATPase preparation at pH 7.4 as described above) on the recovery of 100 nmole of inorganic phosphate was also determined.
Compounds of structure (I) were initially dissolved in dimethyl sulphoxide, polyethylene glycol (Type 400) or Pipes/Tris buffer.
All data refer to the concentration of compound present in the preincubation before dilution with assay buffer.

For test [2], the system named is Histamine-Stimulated Gastric Acid Secretion. Nature of the test: Dog: Conscious Heidenhain Pouch (Histamine-Stimulated Gastric Acid Secretion). It is filed as in vivo. The conditions noted are these: Canis lupus familiaris, intravenous. The text has this: B. Dog: Conscious Heidenhain Pouch (Histamine-Stimulated Gastric Acid Secretion)
Using dogs surgically prepared with Heidenhain pouches 1 to 3 years previously, inhibitory ED50 values against histamine stimulated gastric acid secretion after intravenous administration were obtained.

The test system of test [3] is Histamine Stimulated Gastric Acid Secretion. Nature of the test: Rat: Lumen Perfumed Stomach (Histamine Stimulated Gastric Acid Secretion). The conditions noted are these: i.v. It is filed as in vivo. The text has this:
C. Rat: Lumen Perfumed Stomach (Histamine Stimulated Gastric Acid Secretion)
Using a modification of the procedure described by Ghosh and Schild (Br. J. Pharmacology, 13, 54, 1958), ED50 values after either intraduodenal (i.d) or intravenous (i.v) administration were obtained as follows: […]

T1 sequence (P19156 whole entry): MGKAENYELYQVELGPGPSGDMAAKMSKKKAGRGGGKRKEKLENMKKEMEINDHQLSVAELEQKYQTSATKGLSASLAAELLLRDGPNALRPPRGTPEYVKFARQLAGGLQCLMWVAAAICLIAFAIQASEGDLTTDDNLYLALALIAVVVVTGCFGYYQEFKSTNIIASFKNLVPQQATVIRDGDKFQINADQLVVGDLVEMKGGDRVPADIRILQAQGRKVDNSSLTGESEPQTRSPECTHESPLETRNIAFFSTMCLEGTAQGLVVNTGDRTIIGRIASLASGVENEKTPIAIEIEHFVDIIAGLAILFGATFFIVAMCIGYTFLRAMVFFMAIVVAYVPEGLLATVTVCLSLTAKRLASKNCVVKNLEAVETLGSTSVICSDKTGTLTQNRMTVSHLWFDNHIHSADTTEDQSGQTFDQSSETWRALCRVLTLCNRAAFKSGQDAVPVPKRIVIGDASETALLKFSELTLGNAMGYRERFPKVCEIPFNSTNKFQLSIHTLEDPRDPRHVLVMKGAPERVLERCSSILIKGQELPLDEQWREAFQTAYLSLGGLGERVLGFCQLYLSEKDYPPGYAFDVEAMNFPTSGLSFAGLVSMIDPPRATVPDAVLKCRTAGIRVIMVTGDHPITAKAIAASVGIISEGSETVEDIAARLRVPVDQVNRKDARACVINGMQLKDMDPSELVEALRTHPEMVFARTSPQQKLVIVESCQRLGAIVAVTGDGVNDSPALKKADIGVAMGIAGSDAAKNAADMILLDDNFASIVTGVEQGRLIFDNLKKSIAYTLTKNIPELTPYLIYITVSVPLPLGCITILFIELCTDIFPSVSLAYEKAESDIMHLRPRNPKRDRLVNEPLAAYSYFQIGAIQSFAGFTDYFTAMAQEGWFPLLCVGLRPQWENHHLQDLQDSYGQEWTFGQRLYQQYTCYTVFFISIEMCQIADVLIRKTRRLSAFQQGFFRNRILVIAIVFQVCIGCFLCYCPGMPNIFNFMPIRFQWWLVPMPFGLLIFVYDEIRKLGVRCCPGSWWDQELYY
T1 sequence (P18434 whole entry partner): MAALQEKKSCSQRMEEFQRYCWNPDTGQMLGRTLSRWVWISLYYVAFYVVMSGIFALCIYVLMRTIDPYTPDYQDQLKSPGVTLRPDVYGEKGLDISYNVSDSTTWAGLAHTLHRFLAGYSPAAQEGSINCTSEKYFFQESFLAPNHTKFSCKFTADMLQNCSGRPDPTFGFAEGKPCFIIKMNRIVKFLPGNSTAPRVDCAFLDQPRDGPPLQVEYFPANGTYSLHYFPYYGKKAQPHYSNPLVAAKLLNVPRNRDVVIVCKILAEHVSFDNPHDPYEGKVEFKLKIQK

The compound `COc1ccc2[nH]c([S+]([O-])Cc3ncc(C)c(N4CCCC4)c3Cl)nc2c1` (stereo not drawn) [Example 14, 2 -(4 -pyrrolidino-3 -chloro-5 -methyl-2 -pyridylmethylsulphinyl)-5 -methoxy-(1H)-benzimidazole] displayed an IC50 in test [1] of 2.6 µM. Besides, at H^+ -K^+ -ATPase, the “inhibition of potassium stimulated ATPase activity” value is on record as “found to inhibit potassium stimulated ATPase activity”.

Compound `COc1ccc2[nH]c([S+]([O-])Cc3nccc(N4CCCC4)c3Cl)nc2c1` (stereo not drawn) [Example 12, 2 -(4 -pyrrolidino-3 -chloro-2 -pyridylmethylsulphinyl)-5 -methoxy-(1H)-benzimidazole] had an IC50 in test [1] of 1 to 10 µM. Besides, the “inhibition of potassium stimulated ATPase activity” value at H^+ -K^+ -ATPase is recorded as “found to inhibit potassium stimulated ATPase activity”.

On to `COc1ccc2[nH]c([S+]([O-])Cc3cc(N)c(Br)cn3)nc2c1` (stereo not drawn) [Example 2, 2 -(4 -amino-5 -bromo-2 -pyridylmethylsulphinyl)-5 -methoxy-(1H)-benzimidazole], for which the IC50 in test [1] turned out to be 6.6 µM. In addition, the ED50 in test [2] worked out at 2.94 µmol/kg. For the same compound, the “inhibition of potassium stimulated ATPase activity” value on H^+ -K^+ -ATPase is on record as “found to inhibit potassium stimulated ATPase activity”.

In the case of `COc1ccc2[nH]c([S+]([O-])Cc3cc(N(C)C)c(Br)cn3)nc2c1` (stereo not drawn) [Example 25, 2-(4-dimethylamino-5-bromo-2-pyridylmethylsulphinyl)-5-methoxy-(1H)-benzimidazole], the ED50 in test [2] is 0.91 µmol/kg. Also, the “inhibition of potassium stimulated ATPase activity” value at H^+ -K^+ -ATPase is on record as “found to inhibit potassium stimulated ATPase activity”.

In turn, `COc1ccc2[nH]c([S+]([O-])Cc3nccc(N4CCOCC4)c3Cl)nc2c1` (stereo not drawn) [Example 4, 2 -(4 -morpholino-3 -chloro-2 -pyridylmethylsulphinyl)-5 -methoxy-(1H)-benzimidazole] showed an IC50 in test [1] of 11 µM. For the same compound, the ED50 in test [2] is 1 µmol/kg. Also, at H^+ -K^+ -ATPase, the “inhibition of potassium stimulated ATPase activity” value is recorded as “found to inhibit potassium stimulated ATPase activity”.

Turning to `COc1ccc2[nH]c([S+]([O-])Cc3nccc(N4CCOCC4)c3F)nc2c1` (stereo not drawn) [Example 28, 2-(4-morpholino-3-fluoro-2-pyridylmethylsulphinyl)-5-methoxy-(1H)-benzimidazole], the 50% effect level in test [2] (ED50) was put at a dose of 2.75 µmol/kg.

`COc1ccc2[nH]c([S+]([O-])Cc3cc(N4CCOCC4)c(F)cn3)nc2c1` (stereo not drawn) [Example 30, 2-(4-morpholino-5-fluoro-2-pyridylmethylsulphinyl)-5-methoxy-(1H)-benzimidazole] registered an ED50 in test [2] of 5.07 µmol/kg. In addition, in test [3], the “% inhibition at 1 μM/kg” value is recorded as 51%.

As to `COc1ccc2[nH]c([S+]([O-])Cc3cc(N(C)C)c(F)cn3)nc2c1` (stereo not drawn) [Example 34, 2-(4-dimethylamino-5-fluoro-2-pyridylmethylsulphinyl)-5-methoxy-(1H)-benzimidazole], in test [3], the “% inhibition at 1 μM/kg” value came out at 37%.

As to “2-(4-piperidino-3-chloro-5-methyl-2-pyridylmethylsulphinyl)-4, 5-difluoromethylenedioxy-(1H)-benzimidazole [Example 24]”, the “inhibition of potassium stimulated ATPase activity” value against H^+ -K^+ -ATPase is given as “found to inhibit potassium stimulated ATPase activity”.

Take `COc1cc2nc([S+]([O-])Cc3nccc(N4CCOCC4)c3F)[nH]c2cc1OC` (stereo not drawn) [Example 38, 2-(4-morpholino-3-fluoro-2-pyridylmethylsulphinyl)-5,6-dimethoxy-(1H)-benzimidazole]: the “% inhibition at 1 μM/kg” value in test [3] is listed as 33%.

As for `COc1ccc2[nH]c([S+]([O-])Cc3ncc(C)c(N(C)C)c3Cl)nc2c1` (stereo not drawn) [Example 16, 2 -(4 -dimethylamino-3 -chloro-5 -methyl-2 -pyridylmethylsulphinyl)-5 -methoxy-(1H)-benzimidazole], the midpoint of inhibition in test [1], the IC50, lay at 3.7 µM. In test [2], the ED50 was 0.29 µmol/kg. In addition, the “inhibition of potassium stimulated ATPase activity” value at H^+ -K^+ -ATPase is on record as “found to inhibit potassium stimulated ATPase activity”.

Turning to `COc1ccc2[nH]c([S+]([O-])Cc3ncc(F)c(N4CCOCC4)c3C)nc2c1` (stereo not drawn) [Example 36, 2-(4-morpholino-5-fluoro-3-methyl-2-pyridylmethylsulphinyl)-5-methoxy-(1H)-benzimidazole], it took a dose of 2.05 µmol/kg to reach the 50% effect level in test [2] (ED50).

Compound `COc1ccc2[nH]c([S+]([O-])Cc3ncc(C)c(N4CCCCC4)c3Cl)nc2c1` (stereo not drawn) [Example 8, 2 -(4 -piperidino-3 -chloro-5 -methyl-2 -pyridylmethylsulphinyl)-5 -methoxy-(1H)-benzimidazole] yielded an IC50 in test [1] of 4.2 µM. The “inhibition of potassium stimulated ATPase activity” value against H^+ -K^+ -ATPase is recorded as “found to inhibit potassium stimulated ATPase activity”.

Regarding `COc1ccc2[nH]c([S+]([O-])Cc3nccc(N4CCCCC4)c3Cl)nc2c1` (stereo not drawn) [Example 10, 2 -(4 -piperidino-3 -chloro-2 -pyridylmethylsulphinyl)-5 -methoxy-(1H)-benzimidazole], the IC50 in test [1] was determined as 2 µM. Also, the ED50 in test [2] turned out to be 1.2 µmol/kg. Besides, the “inhibition of potassium stimulated ATPase activity” value against H^+ -K^+ -ATPase is listed as “found to inhibit potassium stimulated ATPase activity”.

In test [1], `COc1ccc2[nH]c([S+]([O-])Cc3nccc(N4CCCCC4)c3Br)nc2c1` (stereo not drawn) [Example 20, 2-(4-piperidino-3-bromo-2-pyridylmethylsulphinyl)-5-methoxy-(1H)-benzimidazole] came in with an IC50 of 1.3 µM. Moreover, the “inhibition of potassium stimulated ATPase activity” value at H^+ -K^+ -ATPase is reported as “found to inhibit potassium stimulated ATPase activity”.

With `COc1cc2[nH]c([S+]([O-])Cc3nccc(N4CCOCC4)c3F)nc2cc1C` (stereo not drawn) [Example 40, 2-(4-morpholino-3-fluoro-2-pyridylmethylsulphinyl)-5-methyl-6-methoxy-(1H)-benzimidazole], the ED50 in test [2] turned out to be 2.14 µmol/kg.

`COc1cc2nc([S+]([O-])Cc3nccc(N(C)C)c3F)[nH]c2cc1OC` (stereo not drawn) [Example 42, 2-(4-dimethylamino-3-fluoro-2-pyridylmethylsulphinyl)-5,6-dimethoxy-(1H)-benzimidazole]: in test [3], the “% inhibition at 1 μM/kg” value amounted to 46%.

Regarding `Cc1cnc(C[S+]([O-])c2nc3cc(OC(F)(F)C(F)F)ccc3[nH]2)c(Cl)c1N1CCCCC1` (stereo not drawn) [Example 23, 2-(4-piperidino-3-chloro-5-methyl-2-pyridylmethylsulphinyl)-5-(1,1,2,2-tetrafluoroethoxy)-(1H)-benzimidazole], the IC50 in test [1] was determined as 1.9 µM. In addition, the “inhibition of potassium stimulated ATPase activity” value against H^+ -K^+ -ATPase is “found to inhibit potassium stimulated ATPase activity”.

Compound `COc1ccc2[nH]c([S+]([O-])Cc3ncc(Br)c(N4CCCCC4)c3C)nc2c1` (stereo not drawn) [Example 22, 2-(4-piperidino-5-bromo-3-methyl-2-pyridylmethylsulphinyl) -5-methoxy-(1H)-benzimidazole] returned an IC50 in test [1] of 9.2 µM. In addition, at H^+ -K^+ -ATPase, the “inhibition of potassium stimulated ATPase activity” value is on record as “found to inhibit potassium stimulated ATPase activity”.

Compound `COc1ccc2[nH]c([S+]([O-])Cc3cc(N4CCCCC4)c(Br)cn3)nc2c1` (stereo not drawn) [Example 18, 2-(4-piperidino-5-bromo-2-pyridylmethylsulphinyl)-5-methoxy-(1H)-benzimidazole] gave an IC50 in test [1] of 1.6 µM. For the same compound, the “inhibition of potassium stimulated ATPase activity” value on H^+ -K^+ -ATPase is “found to inhibit potassium stimulated ATPase activity”.

Turning to `COc1ccc2[nH]c([S+]([O-])Cc3nccc(N(C)C)c3F)nc2c1` (stereo not drawn) [Example 32, 2-(4-dimethylamino-3-fluoro-2-pyridylmethylsulphinyl)-5-methoxy-(1H)-benzimidazole], in test [3], the “% inhibition at 1 μM/kg” value turned out to be 26%.

`COc1ccc2[nH]c([S+]([O-])Cc3ncc(C)c(N4CCOCC4)c3Cl)nc2c1` (stereo not drawn) [Example 6, 2 -(4 -morpholino-3 -chloro-5 -methyl-2 -pyridylmethylsulphinyl)-5 -methoxy-(1H)-benzimidazole] yielded an IC50 in test [1] of 16.3 µM. In test [2], it took a dose of 2.2 µmol/kg to reach the 50% effect level (ED50). Besides, at H^+ -K^+ -ATPase, the “inhibition of potassium stimulated ATPase activity” value is “found to inhibit potassium stimulated ATPase activity”.

As for `COc1ccc2[nH]c([S+]([O-])Cc3cc(N4CCCC4)c(Br)cn3)nc2c1` (stereo not drawn) [Example 26, 2-(4-pyrrolidino-5-bromo-2-pyridylmethylsulphinyl)-5-methoxy-(1H)-benzimidazole], the “inhibition of potassium stimulated ATPase activity” value against H^+ -K^+ -ATPase was “found to inhibit potassium stimulated ATPase activity”.
